# Tested on: multiple myeloma
# Assay: Clinical response to Selinexor-based regimens after anti-CD38 monoclonal antibody in the immediate prior line (STOMP, XPORT-MM-028)
# Format: in vivo, human
# Settings: Selinexor-based regimen
compound,measurement,setting,value
O=C(/C=C\n1cnc(-c2cc(C(F)(F)F)cc(C(F)(F)F)c2)n1)NNc1cnccn1 [Selinexor],"PFS, anti-CD38 mAb in immediate prior line versus not",STOMP and XPORT-MM-028 trials,statistically significant improvement
same,"VGPR rate, anti-CD38 mAb in immediate prior line versus not",STOMP trial (xpd and xkd arms),higher
same,"ORR and CBR, anti-CD38 mAb in immediate prior line versus not",XPORT-MM-028 trial (xvd),considerably higher
